# Source: ChEMBL document CHEMBL1201862, “PubChem BioAssay data set” (2004)
#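 These data come from cells grown in 96-well plates and exposed to compound for 48 hours at five concentrations. At the GI50, growth is halved.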 Calls of active or inactive are those of the source. Rule as the data show it: active = GI50 up to about 1.1 µM and inactive = higher.
# How the values were obtained:
# Assay in all cases: DTP human tumour cell line panel, 48 h
# A549 = tested on: A549
# COLO 205 = tested on: COLO 205
# EKVX = tested on: EKVX
# HCT-15 = tested on: HCT-15
# HOP-62 = tested on: HOP-62
# IGROV-1 = tested on: IGROV-1
# LOX IMVI = tested on: LOX IMVI
# NCI-H226 = tested on: NCI-H226
# NCI-H460 = tested on: NCI-H460
# OVCAR-8 = tested on: OVCAR-8
# SF-268 = tested on: SF-268
# SN12C = tested on: SN12C
# U-251 = tested on: U-251
# UO-31 = tested on: UO-31
# OVCAR-4 = tested on: OVCAR-4
# OVCAR-5 = tested on: OVCAR-5
# DU-145 = tested on: DU-145
# MCF7 = tested on: MCF7
# NCI/ADR-RES = tested on: NCI/ADR-RES
SMILES,GI50 (A549),GI50 (COLO 205),GI50 (EKVX),GI50 (HCT-15),GI50 (HOP-62),GI50 (IGROV-1),GI50 (LOX IMVI),GI50 (NCI-H226),GI50 (NCI-H460),GI50 (OVCAR-8),GI50 (SF-268),GI50 (SN12C),GI50 (U-251),GI50 (UO-31),GI50 (OVCAR-4),GI50 (OVCAR-5),GI50 (DU-145),GI50 (MCF7),GI50 (NCI/ADR-RES)
O=C(NO)c1ccc([N+](=O)[O-])cc1,64.4 µM (inactive),31.1 µM (inactive),27.1 µM (inactive),64.3 µM,29.3 µM (inactive),49.9 µM (inactive),40.8 µM (inactive),39.5 µM (inactive),50.2 µM (inactive),25.2 µM (inactive),> 100 µM (inactive),94.2 µM (inactive),43 µM (inactive),24.8 µM (inactive),–,–,–,–,–
COc1ccc(/C=C2\C(=O)N(C(=O)c3ccc(NC(C)=O)cc3)N=C2C)cc1,> 100 µM (inactive),> 100 µM (inactive),> 100 µM (inactive),> 100 µM,> 100 µM (inactive),–,> 100 µM (inactive),> 100 µM (inactive),> 100 µM (inactive),> 100 µM (inactive),> 100 µM (inactive),> 100 µM (inactive),–,> 100 µM (inactive),> 100 µM (inactive),> 100 µM (inactive),–,–,–
CCSc1[nH]c(NC(=S)NC(=O)c2ccccc2Cl)c(C(N)=O)c1C(N)=O,> 10 µM (inactive),> 10 µM (inactive),> 10 µM (inactive),> 10 µM,> 10 µM (inactive),> 10 µM (inactive),> 10 µM (inactive),–,–,> 10 µM (inactive),> 10 µM (inactive),> 10 µM (inactive),–,–,> 10 µM (inactive),–,> 10 µM (inactive),> 10 µM (inactive),–
Cn1nc(-c2ccccc2)c2c(/C=C/c3ccc(Cl)cc3)onc2c1=O,8.95 µM (inactive),30.8 µM (inactive),> 100 µM (inactive),26.3 µM,–,31.4 µM (inactive),25.6 µM (inactive),–,> 100 µM (inactive),16.7 µM (inactive),> 100 µM (inactive),17.1 µM (inactive),33.7 µM (inactive),16.3 µM (inactive),–,–,–,–,–
Cc1ccc(S(=O)(=O)n2c3c(c4ccccc42)CCN2C[C@H]([C@H](C)Br)CC[C@@H]32)cc1,> 100 µM (inactive),> 100 µM (inactive),> 100 µM (inactive),> 100 µM,> 100 µM (inactive),> 100 µM (inactive),> 100 µM (inactive),> 100 µM (inactive),> 100 µM (inactive),> 100 µM (inactive),> 100 µM (inactive),–,> 100 µM (inactive),> 100 µM (inactive),> 100 µM (inactive),> 100 µM (inactive),> 100 µM (inactive),91.8 µM (inactive),> 100 µM (inactive)
COC(=O)C12OCC34C(CC5C(C)C6=CC(=O)OC6=CC5(C)C3C(O)C1O)OC(=O)C(OC(C)=O)C24 (stereo not given),19.8 µM (inactive),8.07 µM (inactive),16.7 µM (inactive),15.3 µM,25.8 µM (inactive),27.8 µM (inactive),17.6 µM (inactive),24.8 µM (inactive),21.3 µM (inactive),16.3 µM (inactive),17 µM (inactive),17.1 µM (inactive),23.5 µM (inactive),24.4 µM (inactive),18.1 µM (inactive),23.1 µM (inactive),–,–,–
C/C(=N\NC(=O)CC(=O)N(C(=O)c1ccc(Cl)cc1)c1ccc(C)cc1)c1ccccc1O,35.6 µM (inactive),16.9 µM (inactive),6.79 µM (inactive),4.88 µM,37 µM (inactive),> 100 µM (inactive),–,77.6 µM (inactive),21.4 µM (inactive),18.7 µM (inactive),28.1 µM (inactive),> 100 µM (inactive),19.6 µM (inactive),4.82 µM (inactive),1.67 µM (inactive),> 100 µM (inactive),–,–,–
CC1=NN(C(=O)Cc2ccccc2)C(=O)/C1=C\c1cccc(O)c1,> 100 µM (inactive),> 100 µM (inactive),> 100 µM (inactive),> 100 µM,> 100 µM (inactive),–,> 100 µM (inactive),> 100 µM (inactive),> 100 µM (inactive),> 100 µM (inactive),> 100 µM (inactive),> 100 µM (inactive),> 100 µM (inactive),> 100 µM (inactive),> 100 µM (inactive),> 100 µM (inactive),–,–,–
CN(C)Cc1[nH]c2ccccc2c1C(=O)c1ccccc1,> 100 µM (inactive),> 100 µM (inactive),–,> 100 µM,33 µM (inactive),> 100 µM (inactive),–,> 100 µM (inactive),> 100 µM (inactive),> 100 µM (inactive),> 100 µM (inactive),–,> 100 µM (inactive),31.6 µM (inactive),> 100 µM (inactive),> 100 µM (inactive),–,–,–
